Measured values from US20230136562A1, “SPIROUREA DERIVATIVES” (Idorsia Pharmaceuticals Ltd, priority 2020, published 2023).

Experiments:
[1] = tested on: DBA/2J mice; test: Audiogenic seizure-sensitive mouse model of generalized convulsive seizures (AGS); format: in vivo; settings: challenge 1 h, 90% MC 0.5% + 10% PEG400, read-out: Seizure stage [% vs. vehicle]
Description: (§1) Formulation and Administration.
(§2) Compounds were formulated in a 10% polyethylene glycol 400 (PEG 400)/90% aqueous solution of 0.5% methylcellulose (MC 0.5%). Firstly drugs are dissolved in PEG 400 and then suspended in MC 0.5% for oral gavage at X mg/5 mL/kg (X see table).
Audiogenic Seizure-Sensitive Mouse Model of Generalized Convulsive Seizures
1. Procedure: Following two days of acclimatisation, auditory seizures are induced in male juvenile DBA/2J mice (22-24 days old). Each mouse is placed individually in the exposure chamber, an hemispheric acrylic glass dome (diameter: 50 cm) within a sound-attenuated box. The sound-attenuated box is equipped with two house lights and a camera system (Fire-I from Unibrain) in order to observe and record the behavioral seizure response. After 60 seconds of habituation, the stimulus, a mixed frequency tone of 15-20 kHz at 110 dB (SASLab Lite, Avisoft Bioacoustics), is played from a speaker that is placed on the top center of the dome. […] Seizures are classified as following: stage 0, normal behavior; stage 1, wild running; stage 2, generalized clonus; stage 3, tonic extension of the hind limbs.
2. Compounds testing: Acute compound effects on audiogenic generalized convulsive seizures are evaluated in independent groups of 8-10 mice randomly assigned. Following oral administration of compound or vehicle, the maximum seizure stage during sound exposure is assessed. Compounds are given 1 hour before exposure to the stimulus. Each mouse is exposed to the auditory stimulus only once and euthanized afterwards by CO2 inhalation.

[2] = tested on: Wistar rats; test: Amygdala-kindling rat model; format: in vivo; settings: formulation 90% MC 0.5% + 10% PEG400
Description: as §1, §2
Amygdala-Kindling Rat Model:
1. Procedure: Adult male Wistar rats (Harlan Laboratories, Netherlands, or Charles Rivers, Germany; body weight 300-350 g) were stereotaxically implanted with twisted bipolar plastic-coated stainless steel electrode (MS333-2-BIU 10 mm, Plastics One) into the right basolateral amygdala under isoflurane anesthesia. To place the electrode, trepanations were made in the skull and the electrode was lowered into the right basolateral amygdala (from bregma: anteriorposterior (AP): −2.5 mm, medio-lateral (ML): −3.5 mm, dorso-ventral (DV): −8.6 mm; α=10°) and secured to the skull with screws and dental acrylate. After one week of recovery, they were handled daily and habituated over one week to the kindling set-up. Kindling procedure: For a kindling session each rat was placed individually into a smooth acrylic plastic, round-bottomed bowl (Ø 36 cm, height 36 cm, BASi movement-responsive caging system) and its intracranial implanted electrode was connected to the stimulator (STG4008, Multichannel Systems GmbH) and the recording devices (PowerLab 8/35, ADInstruments Ltd) via a cable (335-340/3 (C), Plastics One). For the kindling procedure, each rat was exposed once daily to an electrical stimulation and the behavioral symptoms of the evoked seizure were observed and classified according to the modified Racine scale (stage 0, arrest, wet dog shakes, normal behaviour; stage 1, facial twitches: nose, lips, eyes; stage 2, chewing, head nodding; stage 3, forelimb clonus; stage 4, rearing, falling on forelimbs; stage 5, rearing, falling on side or back, rolling). The electrical stimulus consists of a 1s-train of 50 Hz square-wave biphasic pulses of 1-ms duration at an intensity of 400 μA (suprathreshold intensity). […] Data Scoring and analysis. The duration of electroencephalographic seizures (afterdischarge, AD) was recorded using LabChart7 Pro software (ADlnstruments Ltd). Simultaneously, videos were recorded to evaluate seizure stage (SS).
2. Compound testing: Acute drug effects were evaluated in groups of 6-8 fully kindled rats in a randomized cross-over design with 48 h between drug and vehicle applications. Following oral administration of drug or vehicle, drug testing included determination of the afterdischarge threshold (the minimal stimulation intensity necessary to evoke an afterdischarge (electroencephalographically measured neuronal hyper-synchronous activity with an amplitude 2-times higher than baseline amplitude and a frequency of ≥1 Hz) of at least 3 sec duration) and monitoring electroencephalographic and behavioral correlates of the evoked seizure at ADT (afterdischarge threshold), including AD duration and SS, by a experimenter blind to treatment assignment.

[3] = 10 mg/kg po, time of challenge 15 min
[4] = 100 mg/kg po, time of challenge 1 h
[5] = 30 mg/kg po, time of challenge 1 h

O=C(NC1CC2(CC2)C1)N[C@@H](CO)c1cccc(C(F)(F)F)c1 (single isomer, unassigned) [Example 186]
change in vivo at 5 mg/kg ([1]; 5 mg/kg po): -67%
AD duration [% vs veh] [2, 3]: −87 % vs veh
Seizure stage [% vs veh] [2, 3]: −50 % vs veh

O=C(NCc1cccc(C(F)(F)F)c1)NC1CC2(CC2)C1 [Example 2, 1-Spiro[2.3]hex-5-yl-3-(3-trifluoromethyl-benzyl)-urea]
change in vivo at 30 mg/kg ([1]; 30 mg/kg po): -95%
AD duration [% vs veh] [2, 4]: −93 % vs veh
Seizure stage [% vs veh] [2, 4]: −88 % vs veh

O=C(NCc1cc(OCC(F)(F)F)ncn1)NC1CC2(CCC2)C1 [Example 59, 1-Spiro[3.3]hept-2-yl-3-[6-(2,2,2-trifluoro-ethoxy)-pyrimidin-4-ylmethyl]-urea]
change in vivo at 10 mg/kg ([1]; 10 mg/kg po): -70%
AD duration [% vs veh] [2, 5]: −96 % vs veh
Seizure stage [% vs veh] [2, 5]: −83 % vs veh
